Data reported in patent publication US20240199649A1 (Biosplice Therapeutics, Inc., priority 2022, published 2024).

Molecular target: recombinant DYRK1A kinase (Homo sapiens (Human), UniProt Q13627)
Assay: DYRK1A kinase assay (Ser/Thr 18 peptide Z-lyte FRET assay)
Format: biochemical
Settings: DYRK1A 0.25 μg/mL, ATP 15 μM, Ser/Thr peptide 18 4 μM; one hour at room temperature; 11-point dose-response, duplicate
How it was run: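 Z-lyte FRET assay on Ser/Thr 18 peptide, kinase activity read as coumarin/fluorescein emission ratio; compounds incubated 1 h at room temperature, then development reagent 1 h, in duplicate. Phosphorylated and unphosphorylated peptide served as controls; IC50 by non-linear regression of dose-response curves.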

IC50 [nM] | Structure (SMILES)
1.1 | CNc1nc(N[C@H]2CCN(C3COC3)C[C@H]2F)nn2ccc(-c3ccc4ncn(CCF)c4n3)c12 [Compound 1003, N^2-((3R,4S)-3-Fluoro-1-(oxetan-3-yl)piperidin-4-yl)-5-(3-(2-fluoroethyl)-3H-imidazo[4,5-b]pyridin-5-yl)-N4-methylpyrrolo[2,1-f][1,2,4]triazine-2,4-diamine]
1.1 | CNc1nc(N[C@@H]2CCN(C)CC2(F)F)nn2ccc(-c3ccc4ncn(CCF)c4n3)c12 [Compound 1004, (R)—N^2-(3,3-Difluoro-1-methylpiperidin-4-yl)-5-(3-(2-fluoroethyl)-3H-imidazo[4,5-b]pyridin-5-yl)-N^4-methylpyrrolo[2,1-f][1,2,4]triazine-2,4-diamine]
0.9 | CNc1nc(N[C@@H]2CCN(C3COC3)CC2(F)F)nn2ccc(-c3ccc4ncn(CCF)c4n3)c12 [Compound 1005, (R)—N^2-(3,3-Difluoro-1-(oxetan-3-yl)piperidin-4-yl)-5-(3-(2-fluoroethyl)-3H-imidazo[4,5-b]pyridin-5-yl)-N^4-methylpyrrolo[2,1-f][1,2,4]triazine-2,4-diamine]
4.1 | CNc1nc(NC2CCC(F)(F)CC2)nn2ccc(-c3ccc4ncn(CC(F)F)c4n3)c12 [Compound 1007, N^2-(4,4-Difluorocyclohexyl)-5-(3-(2,2-difluoroethyl)-3H-imidazo[4,5-b]pyridin-5-yl)-N^4-methylpyrrolo[2,1-f][1,2,4]triazine-2,4-diamine]
0.4 | CNc1nc(N[C@H]2CC[C@@](C)(O)CC2)nn2ccc(-c3ccc4ncn(CC(F)F)c4n3)c12 [Compound 1008, (1r,4r)-4-((5-(3-(2,2-Difluoroethyl)-3H-imidazo[4,5-b]pyridin-5-yl)-4-(methylamino)pyrrolo[2,1-f][1,2,4]triazin-2-yl)amino)-1-methylcyclohexan-1-ol]
2 | CNc1nc(N[C@H]2CCN(C3COC3)C[C@H]2F)nn2ccc(-c3ccc4ncn(CC(F)F)c4n3)c12 [Compound 1009, 5-(3-(2,2-Difluoroethyl)-3H-imidazo[4,5-b]pyridin-5-yl)-N^2-((3R,4S)-3-fluoro-1-(oxetan-3-yl)piperidin-4-yl)-N4-methylpyrrolo[2,1-f][1,2,4]triazine-2,4-diamine]
0.5 | CNc1nc(N[C@@H]2CCN(C(C)=O)CC2(F)F)nn2ccc(-c3ccc4ncn(CC(F)F)c4n3)c12 [Compound 1010, (R)-1-(4-((5-(3-(2,2-Difluoroethyl)-3H-imidazo[4,5-b]pyridin-5-yl)-4-(methylamino)pyrrolo[2,1-f][1,2,4]triazin-2-yl)amino)-3,3-difluoropiperidin-1-yl)ethan-1-one]
1.4 | CNc1nc(N[C@@H]2CCN(C)CC2(F)F)nn2ccc(-c3ccc4ncn(CC(F)F)c4n3)c12 [Compound 1011, (R)—N^2-(3,3-Difluoro-1-methylpiperidin-4-yl)-5-(3-(2,2-difluoroethyl)-3H-imidazo[4,5-b]pyridin-5-yl)-N^4-methylpyrrolo[2,1-f][1,2,4]triazine-2,4-diamine]
0.5 | CNc1nc(N[C@H]2CCN(C(C)=O)C[C@H]2F)nn2ccc(-c3ccc4ncn(CC(F)F)c4n3)c12 [Compound 1012, 1-((3R,4S)-4-((5-(3-(2,2-Difluoroethyl)-3H-imidazo[4,5-b]pyridin-5-yl)-4-(methylamino)pyrrolo[2,1-f][1,2,4]triazin-2-yl)amino)-3-fluoropiperidin-1-yl)ethan-1-one]
0.9 | CNc1nc(N[C@@H]2CCN(C3COC3)CC2(F)F)nn2ccc(-c3ccc4ncn(CC(F)F)c4n3)c12 [Compound 1013, (R)—N^2-(3,3-Difluoro-1-(oxetan-3-yl)piperidin-4-yl)-5-(3-(2,2-difluoroethyl)-3H-imidazo[4,5-b]pyridin-5-yl)-N4-methylpyrrolo[2,1-f][1,2,4]triazine-2,4-diamine]
10.1 | CNc1nc(NC2CCC(F)(F)CC2)nn2ccc(-c3ccc4ncn(CC(F)(F)F)c4n3)c12 [Compound 1014, N^2-(4,4-Difluorocyclohexyl)-N^4-methyl-5-(3-(2,2,2-trifluoroethyl)-3H-imidazo[4,5-b]pyridin-5-yl)pyrrolo[2,1-f][1,2,4]triazine-2,4-diamine]
1.4 | CNc1nc(N[C@H]2CCN(C(C)=O)C[C@H]2F)nn2ccc(-c3ccc4ncn(CC(F)(F)F)c4n3)c12 [Compound 1015, 1-((3R,4S)-3-Fluoro-4-((4-(methylamino)-5-(3-(2,2,2-trifluoroethyl)-3H-imidazo[4,5-b]pyridin-5-yl)pyrrolo[2,1-f][1,2,4]triazin-2-yl)amino)piperidin-1-yl)ethan-1-one]
1.5 | CNc1nc(N[C@H]2CCN(C3COC3)C[C@H]2F)nn2ccc(-c3ccc4ncn(CC(F)(F)F)c4n3)c12 [Compound 1016, N^2-((3R,4S)-3-Fluoro-1-(oxetan-3-yl)piperidin-4-yl)-N^4-methyl-5-(3-(2,2,2-trifluoroethyl)-3H-imidazo[4,5-b]pyridin-5-yl)pyrrolo[2,1-f][1,2,4]triazine-2,4-diamine]
1.7 | CNc1nc(N[C@@H]2CCN(C)CC2(F)F)nn2ccc(-c3ccc4ncn(CC(F)(F)F)c4n3)c12 [Compound 1017, (R)—N^2-(3,3-Difluoro-1-methylpiperidin-4-yl)-N^4-methyl-5-(3-(2,2,2-trifluoroethyl)-3H-imidazo[4,5-b]pyridin-5-yl)pyrrolo[2,1-f][1,2,4]triazine-2,4-diamine]
1.6 | CNc1nc(N[C@@H]2CCN(C(C)=O)CC2(F)F)nn2ccc(-c3ccc4ncn(CC(F)(F)F)c4n3)c12 [Compound 1018, (R)-1-(3,3-Difluoro-4-((4-(methylamino)-5-(3-(2,2,2-trifluoroethyl)-3H-imidazo[4,5-b]pyridin-5-yl)pyrrolo[2,1-f][1,2,4]triazin-2-yl)amino)piperidin-1-yl)ethan-1-one]
1.7 | CNc1nc(N[C@@H]2CCN(C3COC3)CC2(F)F)nn2ccc(-c3ccc4ncn(CC(F)(F)F)c4n3)c12 [Compound 1019, (R)—N^2-(3,3-Difluoro-1-(oxetan-3-yl)piperidin-4-yl)-N^4-methyl-5-(3-(2,2,2-trifluoroethyl)-3H-imidazo[4,5-b]pyridin-5-yl)pyrrolo[2,1-f][1,2,4]triazine-2,4-diamine]
2.1 | CNc1nc(N[C@H]2CCN(C(C)=O)C[C@H]2F)nn2ccc(-c3ccc4nc(C)n(CCF)c4n3)c12 [Compound 1020, 1-((3R,4S)-3-Fluoro-4-((5-(3-(2-fluoroethyl)-2-methyl-3H-imidazo[4,5-b]pyridin-5-yl)-4-(methylamino)pyrrolo[2,1-f][1,2,4]triazin-2-yl)amino)piperidin-1-yl)ethan-1-one]
1.3 | CNc1nc(N[C@@H]2CCN(C(C)=O)CC2(F)F)nn2ccc(-c3ccc4nc(C)n(CCF)c4n3)c12 [Compound 1021, (R)-1-(3,3-Difluoro-4-((5-(3-(2-fluoroethyl)-2-methyl-3H-imidazo[4,5-b]pyridin-5-yl)-4-(methylamino)pyrrolo[2,1-f][1,2,4]triazin-2-yl)amino)piperidin-1-yl)ethan-1-one]
0.4 | CNc1nc(N[C@H]2CCN(C(C)=O)C[C@H]2F)nn2ccc(-c3ccc4nc(C)n(CC(F)F)c4n3)c12 [Compound 1022, 1-((3R,4S)-4-((5-(3-(2,2-Difluoroethyl)-2-methyl-3H-imidazo[4,5-b]pyridin-5-yl)-4-(methylamino)pyrrolo[2,1-f][1,2,4]triazin-2-yl)amino)-3-fluoropiperidin-1-yl)ethan-1-one]
4.7 | CNc1nc(N[C@@H]2CCN(C(C)=O)CC2(F)F)nn2ccc(-c3ccc4nc(C)n(CC(F)F)c4n3)c12 [Compound 1023, (R)-1-(4-((5-(3-(2,2-Difluoroethyl)-2-methyl-3H-imidazo[4,5-b]pyridin-5-yl)-4-(methylamino)pyrrolo[2,1-f][1,2,4]triazin-2-yl)amino)-3,3-difluoropiperidin-1-yl)ethan-1-one]
1 | CNc1nc(N[C@@H]2CCN(C(C)=O)CC2(F)F)nn2ccc(-c3ccc4nc(C)n(CC(F)(F)F)c4n3)c12 [Compound 1024, (R)-1-(3,3-Difluoro-4-((5-(2-methyl-3-(2,2,2-trifluoroethyl)-3H-imidazo[4,5-b]pyridin-5-yl)-4-(methylamino)pyrrolo[2,1-f][1,2,4]triazin-2-yl)amino)piperidin-1-yl)ethan-1-one]
10.1 | CNc1nc(NC2CCC(F)(F)CC2)nn2ccc(-c3ccc4nnn(CC(F)F)c4n3)c12 [Compound 1025, N^2-(4,4-Difluorocyclohexyl)-5-(3-(2,2-difluoroethyl)-3H-[1,2,3]triazolo[4,5-b]pyridin-5-yl)-N^4-methylpyrrolo[2,1-f][1,2,4]triazine-2,4-diamine]
0.3 | CNc1nc(N[C@@H]2CN(C(C)=O)C[C@@H]2F)nn2ccc(-c3ccc4nnn(CC(F)F)c4n3)c12 [Compound 1026, 1-((3R,4S)-3-((5-(3-(2,2-Difluoroethyl)-3H-[1,2,3]triazolo[4,5-b]pyridin-5-yl)-4-(methylamino)pyrrolo[2,1-f][1,2,4]triazin-2-yl)amino)-4-fluoropyrrolidin-1-yl)ethan-1-one]
0.6 | CNc1nc(N[C@@H]2CN(C)CC2(F)F)nn2ccc(-c3ccc4nnn(CC(F)F)c4n3)c12 [Compound 1027, (R)—N^2-(4,4-Difluoro-1-methylpyrrolidin-3-yl)-5-(3-(2,2-difluoroethyl)-3H-[1,2,3]triazolo[4,5-b]pyridin-5-yl)-N^4-methylpyrrolo[2,1-f][1,2,4]triazine-2,4-diamine]
1.3 | CNc1nc(N[C@@H]2CN(C3COC3)CC2(F)F)nn2ccc(-c3ccc4nnn(CC(F)F)c4n3)c12 [Compound 1028, (R)—N^2-(4,4-Difluoro-1-(oxetan-3-yl)pyrrolidin-3-yl)-5-(3-(2,2-difluoroethyl)-3H-[1,2,3]triazolo[4,5-b]pyridin-5-yl)-N^4-methylpyrrolo[2,1-f][1,2,4]triazine-2,4-diamine]
